Series [1] can be described thus: Stress ulcer (water immersion stress) in mice. The series is classed as in vivo, mice (ddK strain, male). The note with it: Table 1, 25 mg/kg p.o. On the procedure: Male mice of ddK strain (body weights, 18-20 g) were placed in a stress cage in groups of 6 animals and immersed down to the level of the xiphoid process in a water bath at 22±1° C. to give a stress. Five hours later the mice were raised from the water bath and the stomach was removed under ether anesthesia. Into the stomach was infused 1.2 ml of a 10% aqueous solution of formaldehyde and, then, the stomach was immersed in a 10% aqueous solution of formaldehyde for 10 minutes for fixation of the tissue. After fixation, an incision was made along the greater curvature for observing ulcers which had appeared in the glandular portion of the stomach. The degree of ulceration was classified according to the following ulcer index scale and the % inhibition of ulcer was estimated.
2: Hemorrhage and erosion
3: Severe hemorrhage and erosion
Each test compound was orally administered, as suspended in a gum arabic solution in concentration of 5%, to mice 10 minutes before stress loading.

A short description of series [2]: Pyloric ligation-induced ulcer (Shay ulcer) in rats. Format: in vivo, Wistar rats (male). To be noted: Table 2, 50 mg/kg i.d. On the procedure:
Male Wistar rats (body weights, 180-200 g) were used in groups of 7 animals. After 48-hour fasting, laparotomy was performed under ether anesthesia and the pylorus was ligated with a suture. After 13 hours, the stomach was isolated under ether anesthesia and gastric juice was collected. The gastric juice was centrifuged at 3,000 r.p.m. for 10 minutes and the volume and pH value of gastric juice were determined. The pH value was determined by using pH paper. After collection of gastric juice, a 10% aqueous solution of formaldehyde was infused into the stomach until the stomach was inflated. Then, the stomach was immersed in a 10% aqueous solution of formaldehyde for 10 minutes for fixation of the tissue. After fixation, an incision was made along the greater curvature for observing ulcers which had developed in the glandular portion of the stomach. The degree of ulcer was classified according to the following ulcer index scale.
2: 1-5 small ulcers (<3 mm in diameter)
3: Six or more small ulcers or one large ulcer (>3 mm in diameter)
4: Two or more large ulcers
Each test compound was administered, as suspended in a gum arabic solution in concentration of 5%, into the duodenum immediately after pyloric ligation.

The nature of series [3]: Indomethacin-induced ulcer in rats. To be noted: Table 3, 50 mg/kg p.o. Format: in vivo, Wistar rats (male). Here is the method:
(§1) Male Wistar rats (body weights, 170-210 g) were used in groups of 6 to 8 animals. Indomethacin, 20 mg/kg body weight, was injected subcutaneously to rats which had been deprived of food for 24 hours. After 7 hours, the stomach was excised under ether anesthesia. A 10% aqueous solution of formaldehyde was infused into the stomach until the stomach was inflated and, then, the stomach was immersed in a 10% aqueous solution of formaldehyde for 10 minutes for fixation of the tissue. After fixation, an incision was made along the greater curvature and the length of ulcers occurring in the glandular portion of the stomach was measured. The total length of ulcers occurring in a rat was taken as an ulcer index. Each test compound was orally administered, as suspended in a gum arabic solution in concentration of 5%, to rats 10 minutes before subcutaneous injection of indomethacin. The doses of test compounds and the ulcer indices for treated and untreated rats are shown in Table 3 for purposes of comparison. The % inhibition of ulcer by each test compound as estimated from the ulcer index is also presented in the same table.

Series [4] is described as follows: Hydrochloric acid-ethanol-induced ulcer in rats. The series is classed as in vivo, Wistar rats (male). Here is the method: as §1, with “Male Wistar rats (body weights, 160-190 g) were used in groups” for “The doses”, “6 to 8 animals. One milliliter of a 60% aqueous solution of ethanol containing 150 mM hydrochloric acid was administered orally to rats which had been deprived of food for 24 hours. After one hour,” for “test compounds and”, “stomach was excised under ether anesthesia. In a manner similar to that described in study” for “ulcer indices”, “indomethacin-induced ulcer,” for “treated and untreated rats are shown in Table 3 for purposes of comparison. The % inhibition of ulcer by each test compound as estimated from”, “was determined. Each test compound was orally administered, as suspended” for “is also presented”, “a gum arabic solution in concentration of 5%, to rats 1 hour before administration of hydrochloric acid-ethanol.” for “the same table.”

Series [5] in a line: Acute toxicity in mice, oral. The arrangement: species or system ddK strain). To be noted: mouse, in vivo, male ddK mice, 10 animals per group. Here is the method:
The 3,4-dihydrobenzopyran compound [I] has been confirmed to be low in toxicity. […] The corresponding values of Compounds (2) to (11) were respectively more than 2,000 mg/kg, and those of compounds (12) to (36) were all more than 3,500 mg/kg.

SMILES strings stand for the structures.

By inhibition in vivo is commonly meant how much of the control response was suppressed. A higher inhibition in vivo goes with strong suppression. As a reminder, the LD50 is the dose at which mortality reaches 50%. A low value points to a more toxic substance.

`COc1c(C)c(C)c2c(c1C)CCC(C)(CC(=O)NC(=N)N)O2` (stereo not shown) [Compound (1), N-(3,4-Dihydro-6-methoxy-2,5,7,8-tetramethyl-2H-benzopyran-2-yl)acetylguanidine]: the results for the “% Inhibition of ulcer” value in series [1] and in series [3] were 61.98% and 77.80%, respectively. Besides, the “Ulcer index (mean ± S.E.)” value in series [1] (control 2.63 ± 0.18) came to 1.00 ± 0.63 mm; in series [2] (scale 0-5, control 3.86 ± 0.40), 2.33 ± 0.42; in series [3] (control 10.36 ± 2.07) it was 2.30 ± 0.58 mm; in series [4] (Table 4, 50 mg/kg p.o., control 7.36 ± 1.23) it was 0.39 ± 0.19 mm. Moreover, the “pH value of gastric juice” value in series [2] (control 1.77 ± 0.54) is 2.07 ± 0.94. Further, the “Volume of gastric juice” value in series [2] (control 5.09 ± 0.40) amounted to 3.36 ± 0.90 ml/100 g body weight. The same molecule had an inhibition in vivo at 25 mg/kg in series [4] (Rattus norvegicus, po, 1 h, Table 7, 25 mg/kg p.o.) of 91.1%. The LD50 in series [5] was found to be 3560 mg/kg.

The record behind these values is US4728650A, “3,4-dihydrobenzopyran derivatives and medicinal uses thereof” (Kuraray Co., Ltd., priority 1985, dated 1988).
